What was measured:
Endothelial cells [1] = assay: Endothelial cell tubule formation assay (tubulogenesis); assay type: cell-based; parameters: key to Tubulogenesis: 0: Numerous capillary-like tube forming pentagonal network; +: Decrease of capillary-like tubes; ++: Dramatic decrease of capillary-like tubes; +++: Absence of capillary-like tubes
Protocol: The endothelial cell tubule formation assay is a semi-quantitative assay that was performed to determine the ability of test samples to inhibit this multi-step process, which involves cell adhesion, migration, differentiation and growth, using a commercial kit (Chemicon). Briefly, endothelial cells were seeded on solid gel of Ecmatrix™ (Chemicon), basement proteins prepared from the Engelbreth Holm-Swarm (EHS) mouse tumor in microplate in a E-99 media (Sigma) supplemented with 5% FBS and VEGF (50 ng/ml) in the presence or absence of the test sample. Cells were incubated for a period of 24 hours at 37° C. Pictures were taken on the entire tissue culture dish using a binocular microscope for further evaluation.

[2] = test system: blood vessel formation in the vitelline membrane of chick embryo; assay: Embryonic Vascularization Test (EVT); assay type: in vivo; conditions: for EVT (% of inhibition): activity at 0.6 mg equivalent Copper
Protocol: The Embryonic Vascularization Test (EVT) was performed to determine the ability of test samples to inhibit the formation of new blood vessels (antiangiogenic activity).
The normal development of a chick embryo involves the formation of an external vascular system located in the vitelline membrane which carries nutrients from the vitellus (yolk) to the developing embryo. When placed onto the vitelline membrane, antiangiogenic substances can inhibit the blood vessel formation that occurs in the vitelline membrane. Briefly, methylcellulose discs (an inert solid and transparent matrix) containing different test samples were placed on the external border of the vascular perimeter of the vitelline membrane, where the angiogenic process occurs. Vascularization was assessed 24 hours after disc deposition, and results were expressed as the percent of embryos in which blood vessel formation was affected. The blood vessel formation was considered affected when its growing path was either deviated, or diminished or when there was no growth observed beyond the disc as compared to the negative control. The results are expressed as 0, +, and ++ where 0 is for a lower response than 25 percent of the eggs; + is for a response between 25 and 50 percent; and ++ is for an antiangiogenic response observed in more than 50 percent of the eggs.
(§1) According to the endothelial cell proliferation assay, the relative effectiveness of two compounds is compared by reference to the EC50 thereof. The EC50 is the concentration of compound at which the number of endothelial cells is reduced by 50% as compared to control. The efficacy of the test samples in EVT is established by the percent of eggs with altered angiogenesis at a given inhibitor dose of 0.6 mg of copper equivalent (see FIG. 6 for examples). A comparison of the antiangiogenic activity of the compounds of the present invention with divalent metal salts (CuCl2, MgCl2, ZnCl2, CoCl2) and uncoupled alpha-amino acids, alpha-imino acids, dipeptides, and nitrogenated molecules comprising a carboxylic acid group, such as creatine, is provided to illustrate that the formation of the amino acid-copper complex gives rise to complexes having antiangiogenic activity.

[3] = test system: Endothelial cells (HUVEC, BAEC); assay: Endothelial cell proliferation; assay type: cell-based, human / bovine; conditions: for EC50: 48 hours, copper equivalent, NA = less than 50% at 1.25 mM copper equivalent, read-out: EC proliferation (EC50 mM)
Protocol: Endothelial and tumor cell proliferation assays were performed to determine the ability of test samples to inhibit endothelial cell proliferation (antiangiogenic activity), normal cell proliferation,and tumor cell proliferation.
Endothelial cells (Human umbilical vein endothelial cells (HUVEC), bovine aortic endothelial cells (BAEC)), skeletal muscle cells, human dermal fibroblasts (all from Clonetics, Walkersville, Md.) were respectively maintained in EBM-2, MDEM, SKGM and FGFM-2 complete media according to manufacturer's instructions. Tumor rat glioblastoma cell line (C6) was maintained in DMEM (Sigma, Oaksville, Ontario) supplemented with 10% fetal calf serum (FCS) and antibiotics in 5% CO2. Briefly, cells seeded in 96-well sterile tissue culture dishes were treated with increasing concentrations of different test samples for a period of 48 hours at 37° C. Cell number was then evaluated by a calorimetric assay using the cell proliferation reagent tetrazolium salt and the fluorimetric assay using DNA dye (Hoescht) according to the procedure established by the manufacturer (Boehringer Mannhein). The conversion of these tetrazolium salts into formazan occurs only in metabolically active cells. The percentage of cell inhibition was determined by comparison to untreated cells.
as §1

[4] = Affinity of the amino acid with copper; assay type: physicochemical
Endothelial cells [5] = assay: Endothelial cell migration assay (VEGF, modified Boyden chamber); assay type: cell-based
Protocol: The endothelial cell migration assay was performed to determine the ability of test samples to inhibit the chemotaxic activity of vascular endothelial growth factor (VEGF;R/D System, MN) using a modified Boyden chamber (Transwell™, Corning/Costar). Briefly, polyvinylidene difluoride filters (PVDF) were coated with Pronectin F (Biosources, CA), a constituent of basement membrane barrier. Boyden chambers were assembled by adding VEGF to the culture media in the lower chamber (chemoattractant). Endothelial cells suspended in cultured media in the presence or the absence of the test samples were added to the upper chamber. The chambers were then incubated for a period of 4.5 hours at 37° C. At the end of the incubation period, the cells from both side of the PVDF membrane were fixed with 3.7% formaldehyde. Cells from the upper surface of the membrane were mechanically removed, and the cells remaining on the underside of the membrane were stained with crystal violet (0.5%; Sigma). Cells were then carefully rinsed and the dye fixed to the cells was quantified with a microplate reader ([…]) after its solubilization with a solution of 50% citric acid (0.1M) in water and 50% ethanol.

[6] = test system: bFGF-stimulated blood vessel formation in Matrigel; assay: Matrigel in vivo angiogenesis assay; parameters: species or system C57B1/6 mice; conditions: 7.0 mg/Kg equivalent copper, intra-peritoneal daily 10 days
Protocol: The Matrigel™ in vivo assay was performed to determine the ability of test samples to inhibit blood vessel formation (antiangiogenic activity) and to establish their bioavailability in vivo.
Briefly, liquid Matrigel™ (Becton Dickinson, Bedford, Mass.) was maintained at 4° C. and mixed thoroughly for at least 3 hours with 1,500 ng/ml basic fibroblast growth factor (bFGF) (R&D Systems, Minneapolis, Minn.) used as the primary angiogenic stimulus. The mixture (0.5 ml) was injected subcutaneously into the ventral midline of C57B1/6 mice, and treatment with different test samples or saline solution was initiated the same day. Additional animals were also injected with Matrigel™ containing no bFGF to serve as baseline controls. The animals were treated daily for a 10 day period (intra-peritonealy, 0.2 ml of each dose). At day 11, animals were injected with FITC-dextran 20 min prior to euthanizing treated mice. Matrigel™ gels were removed along with underlying peritoneum and prepared for FITC-dextran detection by fluorimetry. The concentration of FITC-dextran in the gels was calculated from a known concentration of FITC-dextran using a standard curve. The FITC-dextran content of the gels from compound-treated animals and controls was expressed as a percent of the positive bFGF-treated controls after the baseline control of FITC-dextran levels were subtracted from all groups.

[7] = 2.5 mM free (not complexed) ligand

Molecule | Endothelial cell proliferation activity (in words) [3] | EC50 [3] | also measured
N[C@@H](Cc1c[nH]cn1)C(=O)O [Free His, histidine, reference compound] |  |  | Tubulogenesis (Endothelial cells [1]; [7]): 0
N[C@H](Cc1c[nH]cn1)C(=O)[O-].N[C@H](Cc1c[nH]cn1)C(=O)[O-].[Cu+2] [Compound 17, D-His:Cu:D-His] | inactive |  | EVT activity (in words) ([2]; in vivo): inactive
NC(=O)CC[C@H](N)C(=O)[O-].NC(=O)CC[C@H](N)C(=O)[O-].[Cu+2] [Compound 11, L-Gln:Cu:L-Gln] |  | 0.76 mM | Affinity of the AA with Cooper [4]: 15.5; EVT (% of inhibition) [2]: 0 (0 non-active (less than 25% of inhibition))
CC(C)C(N)C(=O)[O-].CC(C)C(N)C(=O)[O-].[Cu+2] [Compound 4, L-Val:Cu:L-Val] |  | 0.35 mM | Affinity of the AA with Cooper [4]: 15.2; EVT (% of inhibition) [2]: + (+ between 25-50% of inhibition)
(Creatine)2-Cu [Compound 34] | excellent activity | 0.28 mM | 
L-Glu:Cu:L-Thr [Compound 27] |  | 0.4 mM | 
[Cl-].[Cl-].[Co+2] [Co++, reference compound] |  | 0.27 mM | 
C[C@@H](O)[C@H](N)C(=O)O [Free Thr, threonine, reference compound] |  |  | Tubulogenesis (Endothelial cells [1]; [7]): 0
D-Asp:Cu:D-Asp [Compound 14] | active | 0.37 mM | 
L-Ala:Cu:Gly [Compound 18] |  | 0.29 mM | 
O=C([O-])[C@@H]1CCCN1.O=C([O-])[C@@H]1CCCN1.[Cu+2] [Compound 28, L-Pro:Cu:L-Pro] | active complex | 0.28 mM | Affinity of the AA with Cooper [4]: 17.6
D-Glu:Cu:D-GIu [Compound 15] | active | 0.35 mM | 
C[C@H](N)C(=O)O.N[C@@H](CCC(=O)[O-])C(=O)[O-].[Cu+2] [Compound 20, L-Ala:Cu:L-Glu] |  | 0.28 mM | 
[Cl][Cu][Cl] [CuCl2, copper chloride, reference compound] |  |  | Tubulogenesis activity (in words) (Endothelial cells [1]): did not show any activity; Tubulogenesis (Endothelial cells [1]; 1.25 mM): 0; Cell migration activity (in words) (Endothelial cells [5]): did not show any activity; Cell Migration (% inhibition) (Endothelial cells [5]; 1.25 mM): 6%; Matrigel in vivo % inhibition [6]: 24.2%
NCCCC[C@H](N)C(=O)[O-].NCCCC[C@H](N)C(=O)[O-].[Cu+2] [Compound 9, L-Lys:Cu:L-Lys] |  | 0.35 mM | Affinity of the AA with Cooper [4]: 14.4; EVT (% of inhibition) [2]: ++ (++ more than 50% of inhibition)
CC(N)C(=O)[O-].CC(N)C(=O)[O-].[Cu+2] [Compound 13, D-Ala:Cu:D-Ala] | active | 0.44 mM | 
NCC(=O)[O-].NCC(=O)[O-].[Cu+2] [Compound 1, Gly:Cu:GIy] |  | 0.27 mM | Affinity of the AA with Cooper [4]: 16.0; EVT (% of inhibition) [2]: ++ (++ more than 50% of inhibition)
